Source: patent EP0551200A1, “Protein phosphatase inhibitors for use in therapy” (priority 1992, dated 1993)

What was measured:
WISH cells = test: Early protein phosphorylation changes in WISH cells; format: cell-based, human; conditions: data not shown
Method: Cell Cultures and Reagents - Human diploid fibroblasts, FS-4, 2343 gifts from Dr. J. Vilcek (New York University). They were grown in tissue culture flasks and maintained with minimal essential medium (MEM) supplemented with 10% fetal bovine serum (Hyclone, Logan, UT, US) herein referred to as regular medium. Human WISH cells were purchased from the American Type Culture Collection. Recombinant human TNF and IL-1 with specific activities of 2 x 10⁷ units and 1 x 10⁸ units/mg protein, respectively, and of purities of ≧99% were purchased from Genzyme Corp. (Cambridge, MA, US). Phorbol 12-myristate 13-acetate, bradykinin, forskolin, dibutyryl-cyclic AMP (dBt-cAMP) and FGF were from Sigma, Okadaic acid was purchased from Biomol (Plymouth Meeting, PA, US). Radioactive [³²P]P was from Du Pont-New England Nuclear. […]
Two-dimensional Gel Electrophoresis - The lyophilized fractions (each of approximately 12 µg) were subjected to isoelectric focusing for 18,000 V/h with pH 3-10 ampholytes using the Millipore Investigator two-dimensional electrophoresis system (Millipore). […] Molecular weight marker proteins from Sigma were detected by Coomassie Blue staining and marked on the autoradiogram. ³²P-Labeled 27 hsp complex prepared from human fibroblasts heat shocked at 43°C for 30 min was also used as a marker.

c-jun = test: Northern blot analysis of c-jun gene expression in human fibroblasts; format: cell-based; conditions: OA 500 nM
Method: (§1) Quiescent human fibroblasts were incubated with TNF (500 units/ml) (a) or OA (500 nM) (b) for 0, 30, 60 min after which total cellular RNA was extracted. Blots of RNA from these cells were hybridized to radiolabeled (10⁶ cpm/ml) Egr-1 cDNA probe. c, the blot in b was stripped and reprobed with c-jun cDNA. Note: Egr-1 mRNA probe was not completely stripped from the blot. The autoradiograph of the blot is presented. d, regularly maintained cells were incubated wither with no additions (control, 0 time) or with OA for 1, 3, 5, 7 h and Northern analysis was carried out with an IL-6 cDNA probe (ATCC, Rockville, MD, US).
(§2) Preparation of RNA and Northern Analysis - Human fibroblasts (4 x 10⁶) were seeded in 175cm² tissue culture flasks and incubated at 37°C for 6 days in regular medium. The cells were fed with regular medium on day 3. On day 6 the medium was replaced by minimal essential medium containing 0.25% fetal calf serum and incubated for another 48 h to maintain the cells in a quiescent state. Quiescent or regularly maintained cells were treated with a specific agonist for the times indicated (see Fig. 7). The cells were harvested and total cytoplasmic RNA isolated by a one-step guanidinium thiocyanate/phenol/chloroform method. […] The blots were autoradiographed and quantitated by the Visage 2000 Image system (BioImage Products, Ann Arbor, MI, US).

IL-6 = test: Northern blot analysis of IL-6 gene expression in human fibroblasts; format: cell-based; conditions: regularly maintained cells
Method: as §1, §2

Egr-1 protein = format: cell-based; conditions: 2 h treatment, data not shown
Method: Quiescent human fibroblasts were stimulated with MEM containing 0.5 µM okadaic acid in the presence or absence of cycloheximide (10 µg/ml) for the times indicated in Fig. 11. […] Treatment of cells with cycloheximide enhanced the induction of Egr-1 mRNA by okadaic acid at 1.5 and 3 h (Fig. 11). Similarly puromycin, like cycloheximide, also "superinduces" the induction of the Egr-1 mRNA by okadaic acid (data not shown). […] However, in view that protein phosphatase 1 (PP1) and protein phosphatase 2A (PP2A) regulate enzymes associated with cellular protein synthesis (Cohen, Annu. Rev. Biochem. 58, 453-508, 1989) the effect of okadaic acid on protein synthesis in mouse and human fibroblasts was also measured. […] By then the Egr-1 mRNA message was already induced. A corollary to this is a comparison of the amount of ³⁵S-methionine labelled Egr-1 protein immunoprecipitated by R5232 antibodies from protein phosphatase inhibitor-treated and control cells. […] Thus, the induction of the Egr-1 gene by phosphatase inhibitors is unlikely to be mediated by their late inhibitory effects on cellular protein synthesis.

With `C=C1[C@@H](O)[C@@H]2O[C@]3(CC[C@H](/C=C/[C@@H](C)[C@@H]4CC(C)=C[C@@]5(O[C@H](C[C@@](C)(O)C(=O)O)CC[C@H]5O)O4)O3)CC[C@H]2O[C@@H]1[C@@H](O)C[C@H](C)[C@H]1O[C@@]2(CCCCO2)CC[C@H]1C` [okadaic acid] the “changes in early protein phosphorylation compared with TNF (in words)” value (WISH cells) was “almost identical changes”, the “time to induction of c-jun” value (c-jun) was ≤ 60 min and the “time of induction of IL-6” value (IL-6) was 7 h. For the same compound, the “amount of 35S-methionine labeled Egr-1 protein relative to control cells” value (Egr-1 protein) was 4 to 5 fold.
